# According to patent publication US12479895B2, “C-terminal CDNF and MANF fragments, pharmaceutical compositions comprising same and uses thereof” (MyNeuroCure Oy, priority 2018, dated 2025):
# What was measured:
# ER stressed SCG neurons = experiment: Survival of tunicamycin-treated (ER stressed) SCG sympathetic neurons after microinjection; assay type: cell-based, mice; conditions: for survived neurons as % compared to neurons grown in the presence of NGF: microinjected into cytoplasm, CDNF (400); for Fold change of survived neurons compared to neurons injected with PBS: data of Table 1 divided by values of PBS
# Summary of the method: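 Newborn mouse SCG neurons grown 5-6 days with 30 ng/ml NGF, then microinjected with CDNF (FL or C-terminal) plasmids (10 ng/ul, EGFP reporter) or proteins (200 ng/ul, Dextran Texas Red). Tunicamycin (2 μM) added next day. Fluorescent survivors counted blindly after 3 days as % of initial; compared with vector or PBS (ANOVA/Dunnett).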
# dopamine neurons = experiment: Survival of TH-positive dopamine neurons in dissociated midbrain floor cultures; assay type: cell-based, mouse; conditions: for survived neurons as % compared to neurons grown in the presence of GDNF / protection of dopaminergic neurons in culture (result in words): 5 days; for protection of dopaminergic neurons in culture (result in words): added to the culture medium, TH-positive neurons counted; for Fold change of survived neurons compared to neurons grown without growth factors: data of Table 3 divided by values of no factor
# Summary of the method: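 Dissociated E13.5 NMRI mouse midbrain floor neurons grown five days in DMEM/F12 with N2, with polypeptides at a range of concentrations, GDNF (100 ng/ml), or nothing. TH-immunopositive neurons were counted by imaging. Values are a percentage of GDNF-maintained TH-positive neurons, as mean ± SEM from at least three independent cultures.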
# [1] = Table 1B (FIG. 16), exp1, tunicamycin 2 μM, counted after 3 days
# [2] = Table 1B (FIG. 16), exp2, tunicamycin 2 μM, counted after 3 days
# [3] = Table 1B (FIG. 16), exp3, tunicamycin 2 μM, counted after 3 days
# [4] = Table 3B (FIG. 17), AVG, 1 ng/ml
# [5] = Table 3B (FIG. 17), AVG, 10 ng/ml
# [6] = Table 3B (FIG. 17), AVG, 100 ng/ml
# [7] = Table 3B (FIG. 17), AVG, 1000 ng/ml
sequence,measurement,setting,value
TLDLASVDLRKMRVAELKQILHSWGEESRACAEKTDYVNLIQELAPKYA (C-CDNF peptide with single amino acid substitution) [pep9],survived neurons as % compared to neurons grown in the presence of NGF,ER stressed SCG neurons; [1],41.23 % NGF
same,survived neurons as % compared to neurons grown in the presence of NGF,ER stressed SCG neurons; [2],44.00 % NGF
same,survived neurons as % compared to neurons grown in the presence of NGF,ER stressed SCG neurons; [3],44.44 % NGF
same,survived neurons as % compared to neurons grown in the presence of GDNF,dopamine neurons; [4],62.74 % GDNF
same,survived neurons as % compared to neurons grown in the presence of GDNF,dopamine neurons; [5],69.29 % GDNF
same,survived neurons as % compared to neurons grown in the presence of GDNF,dopamine neurons; [6],71.62 % GDNF
same,survived neurons as % compared to neurons grown in the presence of GDNF,dopamine neurons; [7],67.12 % GDNF
TLDLASVDLRKMRVAEPKQILHSWGEECRACAEKTDYVNLIQELAPKYA (Mutated C-CDNF peptide) [pep12],survived neurons as % compared to neurons grown in the presence of NGF,ER stressed SCG neurons; [1],86.74 % NGF
same,survived neurons as % compared to neurons grown in the presence of NGF,ER stressed SCG neurons; [2],86.15 % NGF
same,survived neurons as % compared to neurons grown in the presence of NGF,ER stressed SCG neurons; [3],70.17 % NGF
same,rescue of ER stressed SCG neurons (result in words),"ER stressed SCG neurons; protein or peptide microinjected into the cytoplasm, tunicamycin 2 μM, living fluorescent neurons counted after 3 days",rescue
same,survived neurons as % compared to neurons grown in the presence of GDNF,dopamine neurons; [4],68.57 % GDNF
same,survived neurons as % compared to neurons grown in the presence of GDNF,dopamine neurons; [5],83.1 % GDNF
same,survived neurons as % compared to neurons grown in the presence of GDNF,dopamine neurons; [6],87.93 % GDNF
same,survived neurons as % compared to neurons grown in the presence of GDNF,dopamine neurons; [7],84.16 % GDNF
same,protection of dopaminergic neurons in culture (result in words),dopamine neurons,best protective effect
TLDLASVDLRKMRVAEPKQILHSWGEECRACAEKTDYVNLIQEPAPKYA (Mutated C-CDNF peptide) [pep14],survived neurons as % compared to neurons grown in the presence of NGF,ER stressed SCG neurons; [1],55.76 % NGF
same,survived neurons as % compared to neurons grown in the presence of NGF,ER stressed SCG neurons; [2],34.32 % NGF
same,survived neurons as % compared to neurons grown in the presence of NGF,ER stressed SCG neurons; [3],48.43 % NGF
same,survived neurons as % compared to neurons grown in the presence of GDNF,dopamine neurons; [4],71.49 % GDNF
same,survived neurons as % compared to neurons grown in the presence of GDNF,dopamine neurons; [5],84.24 % GDNF
same,survived neurons as % compared to neurons grown in the presence of GDNF,dopamine neurons; [6],85.71 % GDNF
same,survived neurons as % compared to neurons grown in the presence of GDNF,dopamine neurons; [7],82.81 % GDNF
same,protection of dopaminergic neurons in culture (result in words),dopamine neurons,best protective effect
VDLRKMRVAELKQILHSWGEECRACAEKTDYVNLIQELAPKYA (listed as Homo sapiens) [pep6],survived neurons as % compared to neurons grown in the presence of NGF,"ER stressed SCG neurons; Table 1A (FIG. 14), AVG of exp1-2, tunicamycin 2 μM",78.47 % NGF
same,survived neurons as % compared to neurons grown in the presence of NGF,"ER stressed SCG neurons; Table 1A (FIG. 14), exp1, tunicamycin 2 μM, counted after 3 days",81.94 % NGF
same,survived neurons as % compared to neurons grown in the presence of NGF,"ER stressed SCG neurons; Table 1A (FIG. 14), exp2, tunicamycin 2 μM, counted after 3 days",75.00 % NGF
same,Fold change of survived neurons compared to neurons injected with PBS,"ER stressed SCG neurons; Table 2, AVG",2.14 Fold to PBS
same,Fold change of survived neurons compared to neurons injected with PBS,"ER stressed SCG neurons; Table 2, exp1",2.39 Fold to PBS
same,Fold change of survived neurons compared to neurons injected with PBS,"ER stressed SCG neurons; Table 2, exp2",1.89 Fold to PBS
same,survived neurons as % compared to neurons grown in the presence of GDNF,"dopamine neurons; Table 3A (FIG. 15), AVG, 1 ng/ml",65.97 % GDNF
same,survived neurons as % compared to neurons grown in the presence of GDNF,"dopamine neurons; Table 3A (FIG. 15), AVG, 10 ng/ml",75.95 % GDNF
same,survived neurons as % compared to neurons grown in the presence of GDNF,"dopamine neurons; Table 3A (FIG. 15), AVG, 100 ng/ml",73.52 % GDNF
same,survived neurons as % compared to neurons grown in the presence of GDNF,"dopamine neurons; Table 3A (FIG. 15), AVG, 1000 ng/ml",70.75 % GDNF
same,survived neurons as % compared to neurons grown in the presence of GDNF,"dopamine neurons; Table 3A (FIG. 15), exp1, 1 ng/ml",62.89 % GDNF
same,survived neurons as % compared to neurons grown in the presence of GDNF,"dopamine neurons; Table 3A (FIG. 15), exp1, 10 ng/ml",66.29 % GDNF
same,survived neurons as % compared to neurons grown in the presence of GDNF,"dopamine neurons; Table 3A (FIG. 15), exp1, 100 ng/ml",71.71 % GDNF
same,survived neurons as % compared to neurons grown in the presence of GDNF,"dopamine neurons; Table 3A (FIG. 15), exp1, 1000 ng/ml",63.01 % GDNF
same,survived neurons as % compared to neurons grown in the presence of GDNF,"dopamine neurons; Table 3A (FIG. 15), exp2, 1 ng/ml",77.34 % GDNF
same,survived neurons as % compared to neurons grown in the presence of GDNF,"dopamine neurons; Table 3A (FIG. 15), exp2, 10 ng/ml",83.75 % GDNF
same,survived neurons as % compared to neurons grown in the presence of GDNF,"dopamine neurons; Table 3A (FIG. 15), exp2, 100 ng/ml",71.86 % GDNF
same,survived neurons as % compared to neurons grown in the presence of GDNF,"dopamine neurons; Table 3A (FIG. 15), exp2, 1000 ng/ml",67.06 % GDNF
same,survived neurons as % compared to neurons grown in the presence of GDNF,"dopamine neurons; Table 3A (FIG. 15), exp3, 1 ng/ml",57.68 % GDNF
same,survived neurons as % compared to neurons grown in the presence of GDNF,"dopamine neurons; Table 3A (FIG. 15), exp3, 10 ng/ml",77.81 % GDNF
same,survived neurons as % compared to neurons grown in the presence of GDNF,"dopamine neurons; Table 3A (FIG. 15), exp3, 100 ng/ml",76.97 % GDNF
same,survived neurons as % compared to neurons grown in the presence of GDNF,"dopamine neurons; Table 3A (FIG. 15), exp3, 1000 ng/ml",82.17 % GDNF
same,Fold change of survived neurons compared to neurons grown without growth factors,"dopamine neurons; Table 4, AVG, 1 ng/ml",1.07 fold
same,Fold change of survived neurons compared to neurons grown without growth factors,"dopamine neurons; Table 4, AVG, 10 ng/ml",1.23 fold
same,Fold change of survived neurons compared to neurons grown without growth factors,"dopamine neurons; Table 4, AVG, 100 ng/ml",1.19 fold
same,Fold change of survived neurons compared to neurons grown without growth factors,"dopamine neurons; Table 4, AVG, 1000 ng/ml",1.15 fold
same,Fold change of survived neurons compared to neurons grown without growth factors,"dopamine neurons; Table 4, exp1, 1 ng/ml",1.10 fold
same,Fold change of survived neurons compared to neurons grown without growth factors,"dopamine neurons; Table 4, exp1, 10 ng/ml",1.16 fold
same,Fold change of survived neurons compared to neurons grown without growth factors,"dopamine neurons; Table 4, exp1, 100 ng/ml",1.25 fold
same,Fold change of survived neurons compared to neurons grown without growth factors,"dopamine neurons; Table 4, exp1, 1000 ng/ml",1.10 fold
same,Fold change of survived neurons compared to neurons grown without growth factors,"dopamine neurons; Table 4, exp2, 1 ng/ml",1.23 fold
same,Fold change of survived neurons compared to neurons grown without growth factors,"dopamine neurons; Table 4, exp2, 10 ng/ml",1.33 fold
same,Fold change of survived neurons compared to neurons grown without growth factors,"dopamine neurons; Table 4, exp2, 100 ng/ml",1.14 fold
same,Fold change of survived neurons compared to neurons grown without growth factors,"dopamine neurons; Table 4, exp2, 1000 ng/ml",1.06 fold
same,Fold change of survived neurons compared to neurons grown without growth factors,"dopamine neurons; Table 4, exp3, 1 ng/ml",0.89 fold
same,Fold change of survived neurons compared to neurons grown without growth factors,"dopamine neurons; Table 4, exp3, 10 ng/ml",1.20 fold
same,Fold change of survived neurons compared to neurons grown without growth factors,"dopamine neurons; Table 4, exp3, 100 ng/ml",1.19 fold
same,Fold change of survived neurons compared to neurons grown without growth factors,"dopamine neurons; Table 4, exp3, 1000 ng/ml",1.27 fold
